Laboratory results taken from patent US20190225650A1, “PEPTIDOMIMETIC MACROCYCLES AND USE THEREOF IN REGULATING HIF1ALPHA” (AILERON THERAPEUTICS, INC., priority 2013, published 2019).
Bridge positions count the residues as written; N and C are the ends. Square brackets hold non-standard residues; d marks the D form. Peptide text beside a SMILES is read from it. S5 = C=CCCC[C@](C)(N)C(=O)O; Nle = CCCC[C@H](N)C(=O)O

Tested on: HRE-bla ME-180 cells
Assay: Reporter gene assay (HRE-bla ME-180 HIF reporter, GeneBLAzer)
Type: cell-based, human
Conditions: for EC50: 24 hour normoxia
Procedure: The following reagents were used:
• DMEM+GutaMAX: (#10569044, Invitrogen) • Black clear bottom plates: (#3603, Costar) • HRE-bla-ME-180 cell line: (#K1644, Invitrogen) • Gene-Blazer reagent & protocol: (#K1096, Invitrogen) • Plate reader: Biotek Synergy 2 • Chetomin: (C9623, Sigma)
4 hours prior to experiment: HRE-bla ME-180 cells were seeded at a density of 20,000 cells/well in a volume of 180 μl in black clear bottom 96-well plates. 180 μl of assay medium was added to the cell-free control wells. Incubation was conducted at 37° C., 5% CO2 for 4 hours.
Diluted chetomin was used as a positive control. Chetomin was diluted in 100% DMSO to a 10 mM stock concentration. A 1 mM stock of chetomin was prepared in 100% DMSO. Then the 1 mM chetomin stock was serially diluted in 1:4 in 100% DMSO. Finally, 50, 12.5, 3.125, 0.78, 0.2, 0.05 μM stock of chetomin in 5% DMSO/water were prepared by adding 114 μL water+6 μL chetomin in DMSO.
Test peptides were diluted before use. The test peptides were diluted in 100% DMSO to a 10 mM stock concentration. Then each 10 mM peptide stock was diluted in 1:3 in 100% DMSO. Finally, 300, 100, 33.3, 11.1, 3.7, 1.2 μM stock of each peptide in 5% DMSO/water were prepared by adding 129.2 μL water+4 μL peptide in DMSO.
20 μl of peptide, chetomin dilution, or DMSO/water control were added to the appropriate wells of a plate to achieve 200 μL final volumes in 0.3% DMSO/media. The plate was first incubated for 18-20 hours in normoxia incubator (37° C. in humidified 5% CO2, 20% O2 atmosphere). Then the plate was transferred to hypoxia incubator for 24 hours (37° C. in humidified 5% CO2, 1% O2 atmosphere)
6× LiveBLAzer™-FRET B/G (CCF4-AM) Substrate Mixture was prepared according to CellSensor™ HRE-bla ME-180 Cell-based Assay Protocol (Invitrogen) and added into each well. Solution A (CCF4-AM) was reconstituted in DMSO to a working concentration of 1 mM, divided in aliquots, and stored at −20° C. The 6× LiveBLAzer-FRET B/G (CCF4-AM) Substrate mixture was prepared by mixing 6 μl of Solution A, 60 μl of Solution B, and 934 μl Solution C.
The plates were removed from incubator and equilibrated to RT for a few minutes. Then 20 μl of 6× Substrate mixture was added to each well. The plates were then incubated at room temperature for 3 hr in the dark and read at 409 Ex/460Em and 409Ex/530Em using the “GeneBlazer-Tungsten with export” program on the Synergy 2.
The average percentage of maximum inhibition was obtained by comparing the peptide treated cells (30 μM) to DMSO vehicle control treated cells. The results are shown in the columns “ME-180 HIF Reporter EC50 (μM) −24 hr normoxia” and “18 h Avg % max inhibition at top conc (HIF Rptr-24 hrsnormoxia) (μM)” of Table 6.

SMILES | 18 h Avg % max inhibition at top conc (HIF Rptr-24 hrs normoxia) (μM) | EC50
CCCC[C@H](NC(=O)[C@H](CC(C)C)NC(=O)[C@H](CC(=O)O)NC(=O)[C@H](CCC(=O)O)NC(=O)[C@H](CCC(=O)O)NC(=O)[C@H](CC(=O)O)NC(=O)[C@@H](NC(=O)[C@H](Cc1ccccc1)NC(C)=O)[C@@H](C)CC)C(=O)N[C@@]1(C)CCCC=CCCC[C@@](C)(C(=O)N[C@@H](CCCC)C(=O)N[C@@H](C)C(=O)N[C@@H](CC(C)C)C(=O)N[C@@H](CC(=O)O)C(=O)N[C@@H](CCCNC(=N)N)C(=O)N[C@H](C(N)=O)[C@@H](C)CC)NC(=O)[C@H]([C@@H](C)CC)NC(=O)[C@H](C(C)C)NC(=O)[C@H](CC(C)C)NC1=O [SP-32] (Ac-FIDEEDL[Nle][S5]LVI[S5][Nle]ALDRI-NH2; staple 9-13) | +++ (≤25 but <50: +++) | 15 to 30 µM
CCCC[C@H](NC(=O)[C@H](CC(C)C)NC(=O)[C@@H](NC(=O)[C@H](CCC(N)=O)NC(=O)[C@H](CCC(=O)O)NC(=O)[C@H](CC(=O)O)NC(=O)[C@@H](NC(=O)[C@H](Cc1ccccc1)NC(C)=O)[C@@H](C)CC)C(C)C)C(=O)N[C@@]1(C)CCCC=CCCC[C@@](C)(C(=O)N[C@@H](CCCC)C(=O)N[C@@H](C)C(=O)N[C@@H](CC(C)C)C(=O)N[C@@H](CC(=O)O)C(=O)N[C@@H](CCCNC(=N)N)C(=O)N[C@H](C(N)=O)[C@@H](C)CC)NC(=O)[C@H]([C@@H](C)CC)NC(=O)[C@H](C(C)C)NC(=O)[C@H](CC(C)C)NC1=O [SP-69] (Ac-FIDEQVL[Nle][S5]LVI[S5][Nle]ALDRI-NH2; staple 9-13) | ++++ (≥50: ++++) | 5 to 15 µM
CCCC[C@H](NC(=O)[C@H](CC(C)C)NC(=O)[C@@H](NC(=O)[C@H](CCC(=O)O)NC(=O)[C@H](CCC(=O)O)NC(=O)[C@H](CC(=O)O)NC(=O)[C@@H](NC(=O)[C@H](Cc1ccccc1)NC(C)=O)[C@@H](C)CC)C(C)C)C(=O)N[C@@]1(C)CCCC=CCCC[C@@](C)(C(=O)N[C@@H](CCCC)C(=O)N[C@@H](C)C(=O)N[C@@H](C)C(=O)N[C@@H](CC(=O)O)C(=O)N[C@@H](CCCNC(=N)N)C(=O)N[C@H](C(N)=O)[C@@H](C)CC)NC(=O)[C@H]([C@@H](C)CC)NC(=O)[C@H](C(C)C)NC(=O)[C@H](CC(C)C)NC1=O [SP-22] (Ac-FIDEEVL[Nle][S5]LVI[S5][Nle]AADRI-NH2; staple 9-13) | ++++ (≥50: ++++) | 5 to 15 µM
CCCC[C@H](NC(=O)[C@H](CC(C)C)NC(=O)[C@@H](NC(=O)[C@H](C)NC(=O)[C@H](CCC(=O)O)NC(=O)[C@H](CC(=O)O)NC(=O)[C@@H](NC(=O)[C@H](Cc1ccccc1)NC(C)=O)[C@@H](C)CC)C(C)C)C(=O)N[C@@]1(C)CCCC=CCCC[C@@](C)(C(=O)N[C@@H](CCCC)C(=O)N[C@@H](C)C(=O)N[C@@H](CC(C)C)C(=O)N[C@@H](CC(=O)O)C(=O)N[C@@H](CCCNC(=N)N)C(=O)N[C@H](C(N)=O)[C@@H](C)CC)NC(=O)[C@H]([C@@H](C)CC)NC(=O)[C@H](C(C)C)NC(=O)[C@H](CC(C)C)NC1=O [SP-13] (Ac-FIDEAVL[Nle][S5]LVI[S5][Nle]ALDRI-NH2; staple 9-13) | ++++ (≥50: ++++) | 5 to 15 µM
CCCC[C@H](NC(=O)[C@H](CC(C)C)NC(=O)[C@@H](NC(=O)[C@H](CCC(=O)O)NC(=O)[C@H](CCC(=O)O)NC(=O)[C@H](CC(=O)O)NC(=O)[C@@H](NC(=O)[C@H](Cc1ccccc1)NC(C)=O)[C@@H](C)CC)C(C)C)C(=O)N[C@@]1(C)CCCC=CCCC[C@@](C)(C(=O)N[C@@H](CCCC)C(=O)N[C@@H](C)C(=O)N[C@@H](CC(C)C)C(=O)N[C@@H](C)C(=O)N[C@@H](CCCNC(=N)N)C(=O)N[C@H](C(N)=O)[C@@H](C)CC)NC(=O)[C@H]([C@@H](C)CC)NC(=O)[C@H](C(C)C)NC(=O)[C@H](CC(C)C)NC1=O [SP-23] (Ac-FIDEEVL[Nle][S5]LVI[S5][Nle]ALARI-NH2; staple 9-13) | ++++ (≥50: ++++) | 5 to 15 µM
CCCC[C@H](NC(=O)[C@H](CCC(=O)O)NC(=O)[C@@H](NC(=O)[C@@H](NC(=O)[C@H](CC(C)C)NC(=O)[C@]1(C)CCCC=CCCC[C@](C)(NC(=O)[C@H](CCC(=O)O)NC(=O)[C@H](CC(=O)O)NC(=O)[C@@H](NC(=O)[C@H](Cc2ccccc2)NC(C)=O)[C@@H](C)CC)C(=O)N[C@@H](C(C)C)C(=O)N[C@@H](CC(C)C)C(=O)N[C@@H](CCCC)C(=O)N1)C(C)C)[C@@H](C)CC)C(=O)N[C@@H](C)C(=O)N[C@@H](CC(C)C)C(=O)N[C@@H](CC(=O)O)C(=O)N[C@@H](CCCNC(=N)N)C(=O)N[C@H](C(=O)N[C@@H](CCCCN)C(=O)N[C@@H](CCC(=O)O)C(=O)N[C@@H](CC(C)C)C(=O)N1CCC[C@H]1C(=O)N[C@@H](CCC(=O)O)C(=O)N[C@@H](CC(C)C)C(=O)N[C@@H](Cc1c[nH]c2ccccc12)C(=O)N[C@@H](CC(C)C)C(N)=O)[C@@H](C)CC [SP-106] (Ac-FIDE[S5]VL[Nle][S5]LVIE[Nle]ALDRIKELPELWL-NH2; staple 5-9) | – | > 30 µM
CC[C@H](C)[C@H](NC(=O)[C@H](Cc1ccccc1)NC(C)=O)C(=O)N[C@@H](CC(=O)O)C(=O)N[C@@H](CCC(=O)O)C(=O)N[C@@H](CCC(=O)O)C(=O)N[C@H](C(=O)N[C@@H](CC(C)C)C(=O)N[C@@H](CCSC)C(=O)N[C@@]1(C)CCCC=CCCC[C@@](C)(C(=O)N[C@@H](CCSC)C(=O)N[C@@H](C)C(=O)N[C@@H](CC(C)C)C(=O)N[C@@H](CC(=O)O)C(=O)N[C@@H](CCCNC(=N)N)C(=O)N[C@H](C(=O)N[C@@H](CCCCN)C(=O)N[C@@H](CCC(=O)O)C(=O)N[C@@H](CC(C)C)C(=O)N2CCC[C@H]2C(=O)N[C@@H](CCC(=O)O)C(=O)N[C@@H](CC(C)C)C(=O)N[C@@H](Cc2c[nH]c3ccccc23)C(=O)N[C@@H](CC(C)C)C(N)=O)[C@@H](C)CC)NC(=O)[C@H]([C@@H](C)CC)NC(=O)[C@H](C(C)C)NC(=O)[C@H](CC(C)C)NC1=O)C(C)C [SP-3] (Ac-FIDEEVLM[S5]LVI[S5]MALDRIKELPELWL-NH2; staple 9-13) | +++ (≤25 but <50: +++) | > 30 µM
CCCC[C@H](NC(=O)[C@H](CC(C)C)NC(=O)[C@@H](NC(=O)[C@H](CCC(=O)O)NC(=O)[C@H](CCC(=O)O)NC(=O)[C@H](CC(=O)O)NC(=O)[C@@H](NC(=O)[C@H](Cc1ccccc1)NC(C)=O)[C@@H](C)CC)C(C)C)C(=O)N[C@@]1(C)CCCC=CCCC[C@@](C)(C(=O)N[C@@H](CCCC)C(=O)N[C@@H](C)C(=O)N[C@@H](CC(C)C)C(=O)N[C@@H](CC(=O)O)C(=O)N[C@@H](CCCNC(=N)N)C(=O)N[C@@H](C)C(N)=O)NC(=O)[C@H]([C@@H](C)CC)NC(=O)[C@H](C(C)C)NC(=O)[C@H](CC(C)C)NC1=O [SP-25] (Ac-FIDEEVL[Nle][S5]LVI[S5][Nle]ALDRA-NH2; staple 9-13) | +++ (≤25 but <50: +++) | 5 to 15 µM
CC[C@H](C)[C@H](NC(C)=O)C(=O)N[C@@H](CC(=O)O)C(=O)N[C@@H](CCC(=O)O)C(=O)N[C@@H](CCC(=O)O)C(=O)N[C@H](C(=O)N[C@@H](CC(C)C)C(=O)N[C@@H](CCSC)C(=O)N[C@@]1(C)CCCC=CCCC[C@@](C)(C(=O)N[C@@H](CCSC)C(=O)NCC(=O)N[C@@H](CC(C)C)C(=O)N[C@@H](CC(=O)O)C(=O)N[C@@H](CCCNC(=N)N)C(=O)N[C@H](C(=O)N[C@@H](CCCCN)C(=O)N[C@@H](CCC(=O)O)C(=O)N[C@@H](CC(C)C)C(=O)N2CCC[C@H]2C(=O)N[C@@H](CCC(=O)O)C(=O)N[C@@H](CC(C)C)C(=O)N[C@@H](Cc2c[nH]c3ccccc23)C(=O)N[C@@H](CC(C)C)C(N)=O)[C@@H](C)CC)NC(=O)[C@H]([C@@H](C)CC)NC(=O)[C@H](C(C)C)NC(=O)[C@H](CC(C)C)NC1=O)C(C)C [SP-86] (Ac-IDEEVLM[S5]LVI[S5]MGLDRIKELPELWL-NH2; staple 8-12) | ++++ (≥50: ++++) | 5 to 15 µM
